Experimental data reported in US11191762B2, “Alkyl substituted triazole compounds as agonists of the APJ Receptor” (priority 2016, dated 2021).

Target: human APJ receptor (Homo sapiens (Human), UniProt P35414)
Assay: biochemical
Assay type: biochemical
Details: [35S]GTPγS binding, membranes from CHO cells stably expressing human APJ receptor; read-out: Activity hAPJ SPA EC50 IP
Protocol: The human APJ receptor was cloned by polymerase chain reaction and the gene encoding the receptor was subcloned in pFLAG-CMV™-3 expression vector (Sigma, Saint Louis, Mo. USA) in-house at Amgen. A GTPγS binding assay was performed on membranes prepared from CHO cells stably expressing human APJ receptor. The optimum experimental conditions for the concentrations of GDP, MgCl2, and NaCl in the assay buffer were initially determined. The assay was performed in 9 μL assay buffer [20 mM HEPES, pH 7.5, 5 mM MgCl2, 100 mM NaCl and 0.1% (w/v) BSA], 1 μL of diluted test compound (starting with 0.75 mM, 2-fold serial dilution with DMSO, total 22 points), 10 μL of 18 µM GDP (final concentration of 3 μM GDP), 20 μL of […] membrane protein expressing human APJ receptor captured with WGA PS beads (final concentration of 5 μg per well), and 20 μL of 0.3 nM [^35S]GTPγS (final concentration is 0.1 nM [^35S]GTPγS)(Perkin Elmer Life and Analytical Sciences, Waltham USA).

Sequence of human APJ receptor (P35414 whole entry): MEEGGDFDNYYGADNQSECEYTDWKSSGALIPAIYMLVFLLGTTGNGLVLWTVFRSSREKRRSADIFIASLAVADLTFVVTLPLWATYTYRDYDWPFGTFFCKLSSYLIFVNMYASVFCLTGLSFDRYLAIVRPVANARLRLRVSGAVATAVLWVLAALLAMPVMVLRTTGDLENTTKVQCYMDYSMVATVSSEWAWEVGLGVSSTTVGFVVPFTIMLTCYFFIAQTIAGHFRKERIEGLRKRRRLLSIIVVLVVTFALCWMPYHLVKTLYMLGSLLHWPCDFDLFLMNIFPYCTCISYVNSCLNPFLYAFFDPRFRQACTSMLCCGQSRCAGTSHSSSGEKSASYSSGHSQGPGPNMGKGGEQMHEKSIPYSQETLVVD

| Compound | EC50 [nM] |
| --- | --- |
| COc1cccc(OC)c1-n1c(NS(=O)(=O)[C@@H](C)[C@H](C)c2ncc(C)cn2)nnc1[C@@H](OC)c1ccccc1 [Example 19.0, (2S,3R)-N-(4-(2,6-dimethoxyphenyl)-5-((S)-methoxy(phenyl)methyl)-4H-1,2,4-triazol-3-yl)-3-(5-methyl-2-pyrimidinyl)-2-butanesulfonamide] | 200 |
| COc1cccc(OC)c1-n1c(Cc2ccc(C)cn2)nnc1NS(=O)(=O)[C@@H](C)[C@H](C)c1ncc(C)cn1 [Example 20.0, (2S,3R)-N-(4-(2,6-dimethoxyphenyl)-5-((5-methyl-2-pyridinyl)methyl)-4H-1,2,4-triazol-3-yl)-3-(5-methyl-2-pyrimidinyl)-2-butanesulfonamide] | > 4200 |
| COc1ncnc(OC)c1-n1c(Cc2ccccc2)nnc1NS(=O)(=O)[C@@H](C)[C@H](C)c1ncc(Cl)cn1 [Example 21.0, (2S,3R)-N-(5-benzyl-4-(4,6-dimethoxy-5-pyrimidinyl)-4H-1,2,4-triazol-3-yl)-3-(5-chloro-2-pyrimidinyl)-2-butanesulfonamide] | 120 |
| COc1ncnc(OC)c1-n1c(Cc2ccccc2)nnc1NS(=O)(=O)[C@@H](C)[C@H](OC)c1ncc(Cl)cn1 [Example 22.0, (1R,2S)-N-(5-benzyl-4-(4,6-dimethoxy-5-pyrimidinyl)-4H-1,2,4-triazol-3-yl)-1-(5-chloro-2-pyrimidinyl)-1-methoxy-2-propanesulfonamide] | 120 |
| COc1ncnc(OC)c1-n1c(Cc2ccccc2)nnc1NS(=O)(=O)[C@@H](C)[C@H](C)c1ncc(C)cn1 [Example 23.0, (2S,3R)-N-(5-benzyl-4-(4,6-dimethoxy-5-pyrimidinyl)-4H-1,2,4-triazol-3-yl)-3-(5-methyl-2-pyrimidinyl)-2-butanesulfonamide] | 400 |
| COc1ncnc(OC)c1-n1c(CC2CCC2)nnc1NS(=O)(=O)[C@@H](C)[C@H](OC)c1ncc(Cl)cn1 [Example 24.0, (1R,2S)-1-(5-chloro-2-pyrimidinyl)-N-(5-(cyclobutylmethyl)-4-(4,6-dimethoxy-5-pyrimidinyl)-4H-1,2,4-triazol-3-yl)-1-methoxy-2-propanesulfonamide] | 1.5 |
| CO[C@H](c1ncc(Cl)cn1)[C@H](C)S(=O)(=O)Nc1nnc(CC2CCC2)n1C1CCOCC1 [Example 25.0, (1R,2S)-1-(5-chloro-2-pyrimidinyl)-N-(5-(cyclobutylmethyl)-4-(tetrahydro-2H-pyran-4-yl)-4H-1,2,4-triazol-3-yl)-1-methoxy-2-propanesulfonamide] | 370 |
| COc1cccc(OC)c1-n1c(C)nnc1NS(=O)(=O)[C@@H](C)[C@H](OC)c1ncc(C)cn1 [Example 26.0, (1R,2S)-N-(4-(2,6-dimethoxyphenyl)-5-methyl-4H-1,2,4-triazol-3-yl)-1-methoxy-1-(5-methylpyrimidin-2-yl)propane-2-sulfonamide] | 120 |
| COc1ncnc(OC)c1-n1c(CC2CC2)nnc1NS(=O)(=O)[C@@H](C)[C@H](OC)c1ncc(Cl)cn1 [Example 27.0, (1R,2S)-1-(5-chloro-2-pyrimidinyl)-N-(5-(cyclopropylmethyl)-4-(4,6-dimethoxy-5-pyrimidinyl)-4H-1,2,4-triazol-3-yl)-1-methoxy-2-propanesulfonamide] | 7.6 |
| COc1ncnc(OC)c1-n1c(CC2CCCC2)nnc1NS(=O)(=O)[C@@H](C)[C@H](OC)c1ncc(Cl)cn1 [Example 28.0, (1R,2S)-1-(5-chloro-2-pyrimidinyl)-N-(5-(cyclopentylmethyl)-4-(4,6-dimethoxy-5-pyrimidinyl)-4H-1,2,4-triazol-3-yl)-1-methoxy-2-propanesulfonamide] | 4.5 |
| COc1ncnc(OC)c1-n1c(CC2CCCCC2)nnc1NS(=O)(=O)[C@@H](C)[C@H](OC)c1ncc(Cl)cn1 [Example 29.0, (1R,2S)-1-(5-chloro-2-pyrimidinyl)-N-(5-(cyclohexylmethyl)-4-(4,6-dimethoxy-5-pyrimidinyl)-4H-1,2,4-triazol-3-yl)-1-methoxy-2-propanesulfonamide] | 21 |
